Measurements as given in patent EP2123249A1, “OIL SOLUTION, AND LUBRICANT, MOISTURE-RETAINING AGENT AND PREPARATION FOR EXTERNAL APPLICATION CONTAINING THE SAME” (priority 2007, dated 2008).
Structures can show the parent of a compound that is named as a salt.

Experiments:
[1] = Feeling of use, graded by viscosity; assay type: physicochemical; conditions: class by viscosity at 25°C
[2] = Viscosity, Brookfield viscometer DV-II+ (Spindle No. 2, 12 rpm, 25°C); assay type: physicochemical
Description: The viscosity of the oil agent of the present invention is, when used in external preparations such as moisturizers and cosmetic materials, preferably 5-200 (mPa·s, 25°C), and more preferably 8-100 (mPa·s, 25°C) . When the viscosity is within the above range, good feeling of use without stickiness can be obtained upon application to skin, etc. In addition, when the oil agent is used in lubricating agents, the viscosity is preferably 50-200 (mPa·s, 25°C) , and more preferably 60-180 (mPa·s, 25°C). When the viscosity is within this range, appropriate lubricating property and workability can be obtained. In this specification, "viscosity" refers to a value of viscosity measured using a Brookfield viscometer DV-II+ (Spindle No. 2, 12 rpm, 25°C).
In these examples, viscosity was measured using a Brookfield viscometer DV-II+ (Spindle No. 2, 12 rpm, 25°C).

[3] = Water solubility evaluation; assay type: physicochemical; conditions: in water
[4] = Oil solubility evaluation in KAK99 (isononyl isononanoate)

Compound	Feeling of use [1]	Viscosity [2] [mPa·s]	Water solubility [3]	Oil solubility [4]
CCOCCOCCOC(=O)CC(O)C(=O)OCCOCCOCC (stereo not drawn) [Example 2, dicarbitol malate]	slightly light	45	○ (Dissolved in water up to 10 % by mass)	△ (Dissolved in KAK99 up to 5 % by mass)
CCOCCOCCOC(=O)C(O)C(O)C(=O)OCCOCCOCC (stereo not drawn) [Example 4, dicarbitol tartrate]	slightly heavy	207		
CCOCCOCCOC(=O)CC(C)CC(C)(C)C (stereo not drawn) [Comparative example 1, carbitol isononanoate, reference compound]	light	5		
CCOCCOCCOC(=O)CCCCC(=O)OCCOCCOCC [Example 3, dicarbitol adipate]	light	20		
CCOCCOCCOC(=O)CCC(=O)OCCOCCOCC [Example 1, dicarbitol succinate]	light	12.5		
CCOCCOC(=O)CCC(=O)OCCOCC [Example 6, di(monoethylene glycol monoethyl ether) succinate]	light	10.0	△ (Dissolved in water up to 5 % by mass)	
CCOCCOCCOCCOC(=O)CCC(=O)OCCOCCOCCOCC [Example 5, di(triethylene glycol monoethyl ether) succinate]	slightly light	32.5		△ (Dissolved in KAK99 up to 5 % by mass)
